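Method: 48-hour compound exposure of cells in 96-well plates, five concentrations, linear interpolation of endpoints. The concentration for full growth arrest is given as TGI.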
How the values were obtained:
Experiment in all cases: growth of human tumour cells (NCI), 48 h
NCI-H522 lung = system: NCI-H522 lung
NCI-H460 lung = system: NCI-H460 lung
A498 renal = system: A498 renal
OVCAR-4 ovarian = system: OVCAR-4 ovarian
NCI-H226 lung = system: NCI-H226 lung
CAKI-1 renal = system: CAKI-1 renal
HCC-2998 colon = system: HCC-2998 colon
HS 578T breast = system: HS 578T breast
NCI-H23 lung = system: NCI-H23 lung
DU-145 prostate = system: DU-145 prostate
786-0 renal = system: 786-0 renal
SK-OV-3 ovarian = system: SK-OV-3 ovarian
SK-MEL-5 melanoma = system: SK-MEL-5 melanoma
RPMI-8226 leukemia = system: RPMI-8226 leukemia
T-47D breast = system: T-47D breast
COLO 205 colon = system: COLO 205 colon
HCT-15 colon = system: HCT-15 colon
HT29 colon = system: HT29 colon
SK-MEL-28 melanoma = system: SK-MEL-28 melanoma
OVCAR-8 ovarian = system: OVCAR-8 ovarian
CCRF-CEM leukemia = system: CCRF-CEM leukemia
SF-539 CNS = system: SF-539 CNS
SNB-75 CNS = system: SNB-75 CNS
EKVX NSCLC = system: EKVX NSCLC
SN12C renal = system: SN12C renal
RXF 393 renal = system: RXF 393 renal
UACC-62 melanoma = system: UACC-62 melanoma
IGROV1 ovarian = system: IGROV1 ovarian
UACC-257 melanoma = system: UACC-257 melanoma
LOX IMVI melanoma = system: LOX IMVI melanoma
HL-60(TB) leukemia = system: HL-60(TB) leukemia
SR leukemia = system: SR leukemia
SK-MEL-2 melanoma = system: SK-MEL-2 melanoma
UO-31 renal = system: UO-31 renal
MOLT-4 leukemia = system: MOLT-4 leukemia
MCF7 breast = system: MCF7 breast
PC-3 prostate = system: PC-3 prostate
SF-295 CNS = system: SF-295 CNS
ACHN renal = system: ACHN renal
K-562 leukemia = system: K-562 leukemia
MDA-MB-231 breast = system: MDA-MB-231 breast
HOP-62 NSCLC = system: HOP-62 NSCLC
HCT-116 colon = system: HCT-116 colon
M14 melanoma = system: M14 melanoma
MALME-3M melanoma = system: MALME-3M melanoma
OVCAR-5 ovarian = system: OVCAR-5 ovarian
NCI/ADR-RES ovarian = system: NCI/ADR-RES ovarian
U251 CNS = system: U251 CNS
A549 NSCLC = system: A549 NSCLC
SW-620 colon = system: SW-620 colon
KM12 colon = system: KM12 colon
MDA-MB-435 = system: MDA-MB-435
SF-268 CNS = system: SF-268 CNS

For `CCOC(=O)/C(=C\n1c(=O)sc2ccccc21)C(=O)c1ccccc1`, the TGI (NCI-H522 lung) was > 100 µM, the TGI (NCI-H460 lung) was > 100 µM and the TGI (A498 renal) was > 100 µM. For the same compound, the TGI (OVCAR-4 ovarian) was > 100 µM, the TGI (NCI-H226 lung) was > 100 µM and the TGI (CAKI-1 renal) was 64.7 µM. The TGI (HCC-2998 colon) was > 100 µM, the TGI (HS 578T breast) was > 100 µM and the TGI (NCI-H23 lung) was > 100 µM. The TGI (DU-145 prostate) was > 100 µM, the TGI (786-0 renal) was > 100 µM and the TGI (SK-OV-3 ovarian) was > 100 µM. For the same compound, the TGI (SK-MEL-5 melanoma) was > 100 µM, the TGI (RPMI-8226 leukemia) was > 100 µM and the TGI (T-47D breast) was > 100 µM. The TGI (COLO 205 colon) was > 100 µM, the TGI (HCT-15 colon) was > 100 µM and the TGI (HT29 colon) was > 100 µM. For the same compound, the TGI (SK-MEL-28 melanoma) was > 100 µM, the TGI (OVCAR-8 ovarian) was > 100 µM and the TGI (CCRF-CEM leukemia) was > 100 µM. For the same compound, the TGI (SF-539 CNS) was > 100 µM, the TGI (SNB-75 CNS) was > 100 µM and the TGI (EKVX NSCLC) was > 100 µM. For the same compound, the TGI (SN12C renal) was > 100 µM, the TGI (RXF 393 renal) was > 100 µM and the TGI (UACC-62 melanoma) was > 100 µM. The TGI (IGROV1 ovarian) was > 100 µM, the TGI (UACC-257 melanoma) was > 100 µM and the TGI (LOX IMVI melanoma) was > 100 µM. For the same compound, the TGI (HL-60(TB) leukemia) was > 100 µM, the TGI (SR leukemia) was > 100 µM and the TGI (SK-MEL-2 melanoma) was > 100 µM. The TGI (UO-31 renal) was > 100 µM, the TGI (MOLT-4 leukemia) was > 100 µM and the TGI (MCF7 breast) was > 100 µM. The TGI (PC-3 prostate) was > 100 µM, the TGI (SF-295 CNS) was > 100 µM and the TGI (ACHN renal) was > 100 µM. The TGI (K-562 leukemia) was > 100 µM, the TGI (MDA-MB-231 breast) was > 100 µM and the TGI (HOP-62 NSCLC) was > 100 µM. The TGI (HCT-116 colon) was > 100 µM, the TGI (M14 melanoma) was > 100 µM and the TGI (MALME-3M melanoma) was > 100 µM. For the same compound, the TGI (OVCAR-5 ovarian) was > 100 µM, the TGI (NCI/ADR-RES ovarian) was > 100 µM and the TGI (U251 CNS) was > 100 µM. The TGI (A549 NSCLC) was > 100 µM, the TGI (SW-620 colon) was > 100 µM and the TGI (KM12 colon) was > 100 µM. For the same compound, the TGI (MDA-MB-435) was > 100 µM and the TGI (SF-268 CNS) was > 100 µM.
